Laboratory results reported in PubChem BioAssay (NCI).
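Following 48 hours of exposure in 96-well plates, responses at five concentrations were used to interpolate endpoints linearly. TGI denotes the concentration required for complete inhibition of growth.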

Assays:
Experiment in all cases: DTP human tumour cell line panel, 48 h
SN12C renal = system: SN12C renal
SNB-75 CNS = system: SNB-75 CNS
HOP-62 NSCLC = system: HOP-62 NSCLC
OVCAR-8 ovarian = system: OVCAR-8 ovarian
A498 renal = system: A498 renal
MALME-3M melanoma = system: MALME-3M melanoma
UO-31 renal = system: UO-31 renal
MDA-MB-231 breast = system: MDA-MB-231 breast
BT-549 breast = system: BT-549 breast
SK-MEL-2 melanoma = system: SK-MEL-2 melanoma
HCC-2998 colon = system: HCC-2998 colon
K-562 leukemia = system: K-562 leukemia
KM12 colon = system: KM12 colon
SW-620 colon = system: SW-620 colon
HCT-116 colon = system: HCT-116 colon
T-47D breast = system: T-47D breast
SK-OV-3 ovarian = system: SK-OV-3 ovarian
MDA-MB-435 = system: MDA-MB-435
SK-MEL-5 melanoma = system: SK-MEL-5 melanoma
NCI/ADR-RES ovarian = system: NCI/ADR-RES ovarian
CAKI-1 renal = system: CAKI-1 renal
NCI-H226 lung = system: NCI-H226 lung
RPMI-8226 leukemia = system: RPMI-8226 leukemia
OVCAR-3 ovarian = system: OVCAR-3 ovarian
EKVX NSCLC = system: EKVX NSCLC
OVCAR-5 ovarian = system: OVCAR-5 ovarian
SNB-19 CNS = system: SNB-19 CNS
MCF7 breast = system: MCF7 breast
PC-3 prostate = system: PC-3 prostate
SR leukemia = system: SR leukemia
LOX IMVI melanoma = system: LOX IMVI melanoma
UACC-62 melanoma = system: UACC-62 melanoma
IGROV1 ovarian = system: IGROV1 ovarian
U251 CNS = system: U251 CNS
TK-10 renal = system: TK-10 renal
HOP-92 NSCLC = system: HOP-92 NSCLC
NCI-H23 lung = system: NCI-H23 lung
HT29 colon = system: HT29 colon
SF-295 CNS = system: SF-295 CNS
OVCAR-4 ovarian = system: OVCAR-4 ovarian
NCI-H522 lung = system: NCI-H522 lung
SF-539 CNS = system: SF-539 CNS
HL-60(TB) leukemia = system: HL-60(TB) leukemia
DU-145 prostate = system: DU-145 prostate
UACC-257 melanoma = system: UACC-257 melanoma
MDA-N = system: MDA-N
RXF 393 renal = system: RXF 393 renal
SK-MEL-28 melanoma = system: SK-MEL-28 melanoma
MOLT-4 leukemia = system: MOLT-4 leukemia
HS 578T breast = system: HS 578T breast
M14 melanoma = system: M14 melanoma
COLO 205 colon = system: COLO 205 colon
ACHN renal = system: ACHN renal
HCT-15 colon = system: HCT-15 colon
A549 NSCLC = system: A549 NSCLC
SF-268 CNS = system: SF-268 CNS
786-0 renal = system: 786-0 renal
CCRF-CEM leukemia = system: CCRF-CEM leukemia
NCI-H460 lung = system: NCI-H460 lung

Measured: TGI

COC(=O)C1=C(OC(=O)/C(=C/c2ccc(Cl)cc2Cl)c2ccc(Cl)cc2Cl)C(C(=O)OC)[C@@]2(O)[C@@H](C(=O)OC)[C@H](C)C[C@@H]1[C@@H]2C(=O)OC (some centres undefined)
> 100 µM: SN12C renal | SNB-75 CNS | HOP-62 NSCLC | OVCAR-8 ovarian | A498 renal | MALME-3M melanoma | UO-31 renal | MDA-MB-231 breast | BT-549 breast | SK-MEL-2 melanoma | HCC-2998 colon | K-562 leukemia | KM12 colon | SW-620 colon | HCT-116 colon | T-47D breast | SK-OV-3 ovarian | MDA-MB-435 | SK-MEL-5 melanoma | NCI/ADR-RES ovarian | CAKI-1 renal | NCI-H226 lung | RPMI-8226 leukemia | OVCAR-3 ovarian | EKVX NSCLC | OVCAR-5 ovarian | SNB-19 CNS | MCF7 breast | PC-3 prostate | SR leukemia | LOX IMVI melanoma | UACC-62 melanoma | IGROV1 ovarian | U251 CNS | TK-10 renal | HOP-92 NSCLC | NCI-H23 lung | HT29 colon | SF-295 CNS | OVCAR-4 ovarian | NCI-H522 lung | SF-539 CNS | HL-60(TB) leukemia | DU-145 prostate | UACC-257 melanoma | MDA-N | RXF 393 renal | SK-MEL-28 melanoma | MOLT-4 leukemia | HS 578T breast | M14 melanoma | COLO 205 colon | ACHN renal | HCT-15 colon | A549 NSCLC | SF-268 CNS | 786-0 renal | CCRF-CEM leukemia | NCI-H460 lung
